Experimental data as given in article PMC8988824, “Subcutaneous in situ gel delivered leuprolide acetate's consistent and prolonged drug delivery maintains effective testosterone suppression independent of age and weight in men with prostate cancer” (BJUI Compass, 2020).

Experiment: clinical
Conditions: male, human, in vivo, sc, 7.5 mg
Procedure: An 8‐week, open‐label, single‐arm study was performed with the objective of evaluating safety, tolerability, and PK following a single dose of 7.5 mg Gel‐LA in surgically castrated men with advanced PCa. Testosterone levels were not evaluated for this study population.
Men aged 45‐85 years with histologically or cytologically proven adenocarcinoma of the prostate who had undergone bilateral orchiectomy at least 2 months prior to study start were eligible. […]
All patients received a single dose of 7.5 mg LA suspended in the ATRIGEL Delivery System (34% w/w Poly [DL‐lactide‐co‐glycolide] and 66% w/w N‐methyl‐2‐pyrrolidone) as a subcutaneous injection into the upper right or upper left quadrant of the abdomen. […] LA concentrations were determined with solid‐phase extraction and high‐performance liquid chromatography followed by radioimmunoassay. […]
Serum concentrations of LA were summarized as mean, standard deviation (SD), % relative SD, median, minimum, and maximum levels. PK parameters included the maximum observed LA concentration (Cmax), time of maximum serum concentration (Tmax), time of last measured LA concentration in serum (tldc), and area under the LA serum concentration vs time curve (AUC). AUC was determined by linear trapezoidal interpolation, and actual times of blood draws were used for the PK analyses. […]

Compound: CCNC(=O)[C@@H]1CCCN1C(=O)[C@H](CCCNC(=N)N)NC(=O)[C@H](CC(C)C)NC(=O)[C@@H](CC(C)C)NC(=O)[C@H](Cc1ccc(O)cc1)NC(=O)[C@H](CO)NC(=O)[C@H](Cc1c[nH]c2ccccc12)NC(=O)[C@H](Cc1c[nH]cn1)NC(=O)[C@@H]1CCC(=O)N1 [Leuprolide Acetate, Leuprolide acetate]
- AUC(0-t): 0.999 µg·h/mL
